test system: 354836-022-R-J1-PDC multicell spheroid viability; test: Anticancer human tumor 354836-022-R-J1-PDC patient-derived head and neck squamous cell carcinoma cell line growth inhibition [PI3K]; details: curve of first compound; second compound 3.16 µM
In short: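 Combination activity was assessed by viability in multicellular tumor spheroids carrying HUVEC and MSC components. Agents were tested with PI3K inhibitors from a Cmax-based top dose (or 10 microM) downward in half-log increments.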
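Further: spheroids exposed to agents for seven days before the viability read.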

IC50 | Structure (SMILES)
< 31.6 nM | CC1(C)CCC(Nc2ncc(C(F)(F)F)c(-c3c[nH]c4c(P(C)(C)=O)c(C#N)ccc34)n2)CN1 (stereo unspecified) + Cc1nc(NC(=O)N2CCCC2C(N)=O)sc1-c1ccnc(C(C)(C)C(F)(F)F)c1

same assay, conditions: curve of first compound; second compound 10 µM

IC50 | Structure (SMILES)
> 10000 nM | C=CC(=O)N1CCN(c2nc(=O)n(-c3c(C)ccnc3C(C)C)c3nc(-c4c(O)cccc4F)c(F)cc23)C(C)C1 (stereo unspecified) + CC(Nc1ncnc2nc[nH]c12)c1cc2cccc(Cl)c2c(=O)n1-c1ccccc1
643 nM | CCN1CCN(Cc2ccc(Nc3ncc(F)c(-c4cc(F)c5nc(C)n(C(C)C)c5c4)n3)nc2)CC1 + CC(Nc1ncnc2nc[nH]c12)c1cc2cccc(Cl)c2c(=O)n1-c1ccccc1
< 31.6 nM | CC1(C)CCC(Nc2ncc(C(F)(F)F)c(-c3c[nH]c4c(P(C)(C)=O)c(C#N)ccc34)n2)CN1 (stereo unspecified) + Cc1nc(NC(=O)N2CCCC2C(N)=O)sc1-c1ccnc(C(C)(C)C(F)(F)F)c1

same assay, conditions: second compound 0.00316 µM; first compound 0.0316 µM; stronger effect = lower value

Structure (SMILES) | viability, T/C
C#Cc1c(F)ccc2cc(O)cc(-c3ncc4c(N5CC6CCC(C5)N6)nc(OCC56CCCN5CC(F)C6)nc4c3F)c12 (stereo unspecified) + CC(Nc1ccc2c(c1)OCCn1cc(N3C(=O)OCC3C(F)F)nc1-2)C(N)=O | 106%
CC(C)NCC(C(=O)N1CCN(c2ncnc3c2C(C)CC3O)CC1)c1ccc(Cl)cc1 (stereo unspecified) + COc1c(OCCCN2CCOCC2)ccc2c3n(c(=NC(=O)c4cnc(N)nc4)nc12)CCN3 | 90.8%

same assay, conditions: second compound 0.00316 µM; first compound 0.1 µM; stronger effect = lower value

Structure (SMILES) | viability, T/C
C#Cc1c(F)ccc2cc(O)cc(-c3ncc4c(N5CC6CCC(C5)N6)nc(OCC56CCCN5CC(F)C6)nc4c3F)c12 (stereo unspecified) + CC(Nc1ccc2c(c1)OCCn1cc(N3C(=O)OCC3C(F)F)nc1-2)C(N)=O | 78%
CC(C)NCC(C(=O)N1CCN(c2ncnc3c2C(C)CC3O)CC1)c1ccc(Cl)cc1 (stereo unspecified) + COc1c(OCCCN2CCOCC2)ccc2c3n(c(=NC(=O)c4cnc(N)nc4)nc12)CCN3 | 68.1%

same assay, conditions: second compound 0.00316 µM; first compound 0.316 µM; stronger effect = lower value

Structure (SMILES) | viability, T/C
C#Cc1c(F)ccc2cc(O)cc(-c3ncc4c(N5CC6CCC(C5)N6)nc(OCC56CCCN5CC(F)C6)nc4c3F)c12 (stereo unspecified) + CC(Nc1ccc2c(c1)OCCn1cc(N3C(=O)OCC3C(F)F)nc1-2)C(N)=O | 96.6%
CC(C)NCC(C(=O)N1CCN(c2ncnc3c2C(C)CC3O)CC1)c1ccc(Cl)cc1 (stereo unspecified) + COc1c(OCCCN2CCOCC2)ccc2c3n(c(=NC(=O)c4cnc(N)nc4)nc12)CCN3 | 52.3%

same assay, conditions: second compound 0.00316 µM; first compound 1 µM; stronger effect = lower value

Structure (SMILES) | viability, T/C
C#Cc1c(F)ccc2cc(O)cc(-c3ncc4c(N5CC6CCC(C5)N6)nc(OCC56CCCN5CC(F)C6)nc4c3F)c12 (stereo unspecified) + CC(Nc1ccc2c(c1)OCCn1cc(N3C(=O)OCC3C(F)F)nc1-2)C(N)=O | 92.7%
CC(C)NCC(C(=O)N1CCN(c2ncnc3c2C(C)CC3O)CC1)c1ccc(Cl)cc1 (stereo unspecified) + COc1c(OCCCN2CCOCC2)ccc2c3n(c(=NC(=O)c4cnc(N)nc4)nc12)CCN3 | 28.5%

same assay, conditions: second compound 0.00316 µM; first compound 3.16 µM; stronger effect = lower value

Structure (SMILES) | viability, T/C
C#Cc1c(F)ccc2cc(O)cc(-c3ncc4c(N5CC6CCC(C5)N6)nc(OCC56CCCN5CC(F)C6)nc4c3F)c12 (stereo unspecified) + CC(Nc1ccc2c(c1)OCCn1cc(N3C(=O)OCC3C(F)F)nc1-2)C(N)=O | 97.4%
CC(C)NCC(C(=O)N1CCN(c2ncnc3c2C(C)CC3O)CC1)c1ccc(Cl)cc1 (stereo unspecified) + COc1c(OCCCN2CCOCC2)ccc2c3n(c(=NC(=O)c4cnc(N)nc4)nc12)CCN3 | 9.34%

same assay, conditions: second compound 0.00316 µM; first compound 10 µM; stronger effect = lower value

Structure (SMILES) | viability, T/C
C#Cc1c(F)ccc2cc(O)cc(-c3ncc4c(N5CC6CCC(C5)N6)nc(OCC56CCCN5CC(F)C6)nc4c3F)c12 (stereo unspecified) + CC(Nc1ccc2c(c1)OCCn1cc(N3C(=O)OCC3C(F)F)nc1-2)C(N)=O | 99.1%
CC(C)NCC(C(=O)N1CCN(c2ncnc3c2C(C)CC3O)CC1)c1ccc(Cl)cc1 (stereo unspecified) + COc1c(OCCCN2CCOCC2)ccc2c3n(c(=NC(=O)c4cnc(N)nc4)nc12)CCN3 | 2.4%

same assay, conditions: second compound 0.01 µM; first compound 0.0316 µM; stronger effect = lower value

Structure (SMILES) | viability, T/C
C#Cc1c(F)ccc2cc(O)cc(-c3ncc4c(N5CC6CCC(C5)N6)nc(OCC56CCCN5CC(F)C6)nc4c3F)c12 (stereo unspecified) + CC(Nc1ccc2c(c1)OCCn1cc(N3C(=O)OCC3C(F)F)nc1-2)C(N)=O | 97.5%
CC(C)NCC(C(=O)N1CCN(c2ncnc3c2C(C)CC3O)CC1)c1ccc(Cl)cc1 (stereo unspecified) + COc1c(OCCCN2CCOCC2)ccc2c3n(c(=NC(=O)c4cnc(N)nc4)nc12)CCN3 | 87.6%

same assay, conditions: second compound 0.01 µM; first compound 0.1 µM; stronger effect = lower value

Structure (SMILES) | viability, T/C
C#Cc1c(F)ccc2cc(O)cc(-c3ncc4c(N5CC6CCC(C5)N6)nc(OCC56CCCN5CC(F)C6)nc4c3F)c12 (stereo unspecified) + CC(Nc1ccc2c(c1)OCCn1cc(N3C(=O)OCC3C(F)F)nc1-2)C(N)=O | 98.9%
CC(C)NCC(C(=O)N1CCN(c2ncnc3c2C(C)CC3O)CC1)c1ccc(Cl)cc1 (stereo unspecified) + COc1c(OCCCN2CCOCC2)ccc2c3n(c(=NC(=O)c4cnc(N)nc4)nc12)CCN3 | 66.5%

same assay, conditions: second compound 0.01 µM; first compound 0.316 µM; stronger effect = lower value

Structure (SMILES) | viability, T/C
C#Cc1c(F)ccc2cc(O)cc(-c3ncc4c(N5CC6CCC(C5)N6)nc(OCC56CCCN5CC(F)C6)nc4c3F)c12 (stereo unspecified) + CC(Nc1ccc2c(c1)OCCn1cc(N3C(=O)OCC3C(F)F)nc1-2)C(N)=O | 93.4%
CC(C)NCC(C(=O)N1CCN(c2ncnc3c2C(C)CC3O)CC1)c1ccc(Cl)cc1 (stereo unspecified) + COc1c(OCCCN2CCOCC2)ccc2c3n(c(=NC(=O)c4cnc(N)nc4)nc12)CCN3 | 42.9%

same assay, conditions: second compound 0.01 µM; first compound 1 µM; stronger effect = lower value

Structure (SMILES) | viability, T/C
C#Cc1c(F)ccc2cc(O)cc(-c3ncc4c(N5CC6CCC(C5)N6)nc(OCC56CCCN5CC(F)C6)nc4c3F)c12 (stereo unspecified) + CC(Nc1ccc2c(c1)OCCn1cc(N3C(=O)OCC3C(F)F)nc1-2)C(N)=O | 96.4%
CC(C)NCC(C(=O)N1CCN(c2ncnc3c2C(C)CC3O)CC1)c1ccc(Cl)cc1 (stereo unspecified) + COc1c(OCCCN2CCOCC2)ccc2c3n(c(=NC(=O)c4cnc(N)nc4)nc12)CCN3 | 24.8%

same assay, conditions: second compound 0.01 µM; first compound 3.16 µM; stronger effect = lower value

Structure (SMILES) | viability, T/C
C#Cc1c(F)ccc2cc(O)cc(-c3ncc4c(N5CC6CCC(C5)N6)nc(OCC56CCCN5CC(F)C6)nc4c3F)c12 (stereo unspecified) + CC(Nc1ccc2c(c1)OCCn1cc(N3C(=O)OCC3C(F)F)nc1-2)C(N)=O | 103%
CC(C)NCC(C(=O)N1CCN(c2ncnc3c2C(C)CC3O)CC1)c1ccc(Cl)cc1 (stereo unspecified) + COc1c(OCCCN2CCOCC2)ccc2c3n(c(=NC(=O)c4cnc(N)nc4)nc12)CCN3 | 9.85%

— PubChem BioAssay AID1963981 (Molecular Pharmacology Branch, DTP, NCI, 2024)
